# Laboratory results from patent publication US12246034B2, “Animal feed supplement and method” (CAN TECHNOLOGIES, INC., priority 2014, dated 2025).
# Like-named read-outs stand apart in the source and are kept apart here.
# Assays:
# sows [1] = details: for Probability of a higher Vitality score: scored within 30 seconds after birth; for Average weight at weaning: piglets
# Experimental: A trial was conducted at the Sterksel Research farm in the Netherlands (part of Wageningen University Research). A total of 207 sows were used in the trial allocated based on parity over 6 treatments (n=34). […] Calcium levels were the same in all diets.
# (§1) Until farrowing, sows received a fixed amount of feed (3.25 kg from day 107-113 and 2.7 kg/sow/day from day 113 till farrowing). During lactation the sows were fed the diets according to a step-up feeding schedule applied (increasing with 0.5 kg/sow/day) the same over the 6 treatments aiming at a peak intake of 7.5 kg/sow/day. Piglets were weaned from the sow at 27 days of age. Performance of sows (e.g. weight, backfat, piglets born alive, stillborn piglets, mortality of piglets) and piglets (e.g. weight at birth, after 48 hours and weaning) was measured on all sows and litters. A subset of sows (19-20 per treatment) was examined more in detail to get insight in the possible mode of action of nitrate. On this subset, blood samples were collected within 4 minutes after birth from 2 piglets out of every 4 piglets born. Blood gasses of umbilical cord blood were analyzed using the i-STAT handheld (Abbott). Vitality of piglets was scored within 30 seconds after birth according to Baxter et al. (2008) with 1 being the lowest and 4 being the highest score for vitality.
# [2] = for pCO2 - Measured value / pH / pO2 - Measured value: umbilical cord blood piglets
# Source text: as §1
# sows [3] = tested on: sows
# Experimental: A field trial was conducted on a commercial farm in Denmark with 650 highly productive Danbred sows (Landrace x Yorkshire) inseminated with a pure line Duroc boar, between Nov. 17, 2014 and Jan. 16, 2015. A total of 139 sows (total number before analyzes) were included in the trial, divided over 3 subsequent sow groups farrowing over a time span of 6 weeks. For all analyzes SAS software (version 9.3, SAS Institute Inc., Cary, N.C.) was used. Sows received a dry meal transition feed (from gestation to lactation), fed from day 111 of gestation till day 5 of lactation, and were allocated to one of the two treatment groups based on parity. […] The total amount of calcium was equal between both experimental treatments. Number born alive (NBA), stillborn and mummies, litter birth weight, as well as back fat of the sows before farrowing (day 110 of gestation) and at weaning (day 24 of lactation) were measured. Litter weights at 24 hours and 3 days after birth were measured as well. On day 3 after birth blood samples were taken from 6 piglets (2 biggest, 2 medium and 2 smallest) from 65 litters of their tails when they were cut and analyzed on immunoglobulin G (IgG) concentration. Placentas of the sows were collected after the farrowing process was finished, stored in freezers and afterwards scored on redness for an indication of the vascularization of these placentas.
# [4] = 0.03% nitrate in lactation diet
# [5] = 0.06% nitrate in lactation diet
# [6] = 0.09% nitrate in lactation diet
# [7] = 0.12% nitrate in lactation diet
# [8] = 0.15% nitrate in lactation diet
# [9] = across 0.03-0.15% nitrate in feed
# [10] = across 0.03-0.15% nitrate in lactation diet
# [11] = across 0.03-0.15% nitrate, P<0.05
structure (smiles),measurement,setting,value
"O=[N+]([O-])O [Nitrate, nitrate]",Aver. birth weight born alive pigs,sows [1]; [4],1308 grams
same,Average livability %,sows [1]; [4],76.1%
same,Average mortality %,sows [1]; [4],16.5%
same,Average piglet weight after 48 hours,sows [1]; [4],1.611 kg
same,Probability born alive,sows [1]; [4],0.95
same,Probability livability,sows [1]; [4],0.85
same,Probability mortality,sows [1]; [4],0.10
same,Probability weaned,sows [1]; [4],0.91
same,Total born,sows [1]; [4],16.8
same,Total born alive,sows [1]; [4],15.2
same,Total born mummified,sows [1]; [4],0.6
same,Total still born,sows [1]; [4],1.6
same,Total weaned,sows [1]; [4],12.3
same,total birth weight litter life born piglets,sows [1]; [4],19.5 kg
same,total litter weight weaning,sows [1]; [4],91.8 kg
same,Probability of a higher Vitality score,sows [1]; [4],0.70
same,Aver. birth weight born alive pigs,sows [1]; [5],1320 grams
same,Average livability %,sows [1]; [5],78.3%
same,Average mortality %,sows [1]; [5],16.2%
same,Average piglet weight after 48 hours,sows [1]; [5],1.598 kg
same,Probability born alive,sows [1]; [5],0.97
same,Probability livability,sows [1]; [5],0.86
same,Probability mortality,sows [1]; [5],0.10
same,Probability weaned,sows [1]; [5],0.91
same,Total born,sows [1]; [5],16.8
same,Total born alive,sows [1]; [5],15.7
same,Total born mummified,sows [1]; [5],0.7
same,Total still born,sows [1]; [5],1.1
same,Total weaned,sows [1]; [5],12.4
same,total birth weight litter life born piglets,sows [1]; [5],20.3 kg
same,total litter weight weaning,sows [1]; [5],91.8 kg
same,Probability of a higher Vitality score,sows [1]; [5],0.74
same,Aver. birth weight born alive pigs,sows [1]; [6],1329 grams
same,Average livability %,sows [1]; [6],81.3%
same,Average mortality %,sows [1]; [6],12.7%
same,Average piglet weight after 48 hours,sows [1]; [6],1.621 kg
same,Probability livability,sows [1]; [6],0.89
same,Probability mortality,sows [1]; [6],0.07
same,Probability weaned,sows [1]; [6],0.94
same,Total born,sows [1]; [6],16.1
same,Total born mummified,sows [1]; [6],0.5
same,Total still born,sows [1]; [6],1.2
same,total birth weight litter life born piglets,sows [1]; [6],20.2 kg
same,total litter weight weaning,sows [1]; [6],96.9 kg
same,Probability of a higher Vitality score,sows [1]; [6],0.80
same,Aver. birth weight born alive pigs,sows [1]; [7],1326 grams
same,Average livability %,sows [1]; [7],80.0%
same,Average mortality %,sows [1]; [7],14.0%
same,Average piglet weight after 48 hours,sows [1]; [7],1.640 kg
same,Probability born alive,sows [1]; [7],0.96
same,Probability livability,sows [1]; [7],0.88
same,Probability mortality,sows [1]; [7],0.08
same,Probability weaned,sows [1]; [7],0.93
same,Total born,sows [1]; [7],17.1
same,Total born alive,sows [1]; [7],15.8
same,Total born mummified,sows [1]; [7],0.5
same,Total still born,sows [1]; [7],1.3
same,Total weaned,sows [1]; [7],13.0
same,total birth weight litter life born piglets,sows [1]; [7],20.8 kg
same,total litter weight weaning,sows [1]; [7],98.6 kg
same,Probability of a higher Vitality score,sows [1]; [7],0.78
same,Aver. birth weight born alive pigs,sows [1]; [8],1355 grams
same,Average livability %,sows [1]; [8],79.0%
same,Average mortality %,sows [1]; [8],14.8%
same,Average piglet weight after 48 hours,sows [1]; [8],1.692 kg
same,Probability born alive,sows [1]; [8],0.96
same,Probability livability,sows [1]; [8],0.87
same,Probability mortality,sows [1]; [8],0.09
same,Probability weaned,sows [1]; [8],0.92
same,Total born,sows [1]; [8],16.6
same,Total born alive,sows [1]; [8],15.3
same,Total born mummified,sows [1]; [8],0.3
same,Total still born,sows [1]; [8],1.3
same,Total weaned,sows [1]; [8],12.6
same,total birth weight litter life born piglets,sows [1]; [8],21.0 kg
same,total litter weight weaning,sows [1]; [8],96.8 kg
same,Probability of a higher Vitality score,sows [1]; [8],0.79
same,Total litter weight at weaning on increasing nitrate addition,sows [1]; [9],significantly (P<0.05) improved
same,Vitality score of the piglets on increasing nitrate addition,sows [1]; [9],significantly (P<0.05) improved
same,"livability, effect of higher nitrate levels",sows [1]; [10],increase
same,"mortality, effect of higher nitrate levels",sows [1]; [10],tended to lower
same,"weaned piglets per litter, effect of higher nitrate levels",sows [1]; [10],more
same,average piglet birth weight with increasing nitrate levels,sows [1]; [11],higher
same,average piglet weight at 48 h with increasing nitrate levels,sows [1]; [11],higher
same,total liter birth weight with increasing nitrate levels,sows [1]; [11],higher
same,Probability of weaned piglets with increasing nitrate inclusion,"sows [1]; across 0.03-0.15% nitrate, P<0.10",improved
same,Probability born alive,sows [1]; in vivo,0.96
same,Total born alive,sows [1]; in vivo,14.9
same,Total weaned,sows [1]; in vivo,12.7
same,Average weight at weaning,sows [1]; [4],7.439 kg
same,Average weight at weaning,sows [1]; [5],7.321 kg
same,Average weight at weaning,sows [1]; [6],7.472 kg
same,Average weight at weaning,sows [1]; [7],7.550 kg
same,Average weight at weaning,sows [1]; [8],7.608 kg
same,pCO2 - Measured value,[2]; 0.03% nitrate in sow diet,34.1 mmHg
same,pH,[2]; 0.03% nitrate in sow diet,7.5
same,pO2 - Measured value,[2]; 0.03% nitrate in sow diet,33.8 mmHg
same,pCO2 - Measured value,[2]; 0.06% nitrate in sow diet,34.5 mmHg
same,pH,[2]; 0.06% nitrate in sow diet,7.5
same,pO2 - Measured value,[2]; 0.06% nitrate in sow diet,35.4 mmHg
same,pCO2 - Measured value,[2]; 0.09% nitrate in sow diet,34.9 mmHg
same,pH,[2]; 0.09% nitrate in sow diet,7.5
same,pO2 - Measured value,[2]; 0.09% nitrate in sow diet,34.5 mmHg
same,pCO2 - Measured value,[2]; 0.12% nitrate in sow diet,34.5 mmHg
same,pH,[2]; 0.12% nitrate in sow diet,7.5
same,pO2 - Measured value,[2]; 0.12% nitrate in sow diet,35.6 mmHg
same,pCO2 - Measured value,[2]; 0.15% nitrate in sow diet,34.8 mmHg
same,pH,[2]; 0.15% nitrate in sow diet,7.5
same,pO2 - Measured value,[2]; 0.15% nitrate in sow diet,35.3 mmHg
same,pO2 values with increasing nitrate addition,"[2]; umbilical cord blood, across 0.03-0.15% nitrate",linearly improved
same,NBA (Number Born Alive),"sows [3]; 0.1% Bolifor CNF in transition feed, LS Means ± SEM",increased
same,"NBD (Number Born Death), stillborn piglets","sows [3]; 0.1% Bolifor CNF in transition feed, log transformed, back-transformed to absolute values",decreased
same,"Colostrum, CI (Colostrum Intake)","sows [3]; 0.1% Bolifor CNF, calculated colostrum intake",No differences were found
